Assay results: PMC6274357, “Antiprotozoal and Antiglycation Activities of Sesquiterpene Coumarins from Ferula narthex Exudate” (Molecules, 2016)
Converted amounts (≈) assume the structure as drawn. Each block holds one molecule with its values, some of them ahead of it.

Columns and labels:
[1] = test system: formation of Advanced Glycation Endproducts (AGEs), BSA-MGO (methyl glyoxal); assay: BSA-MGO antiglycation assay; assay type: biochemical, bovine
Experimental: The BSA (bovine serum albumin) -glucose and BSA-MGO (methyl glyoxal) antiglycation assays were carried out as reported before. The test protocol is attached as Supplementary Materials.
Supplementary Materials: Antiprotozoal and
Antiglycation Activities of Sesquiterpene Coumarins
from Ferula narthex Exudate […]
2. The AGEs Inhibition was Calculated as […]
3. Protein-Glyoxal Interaction (BSA-MGO Assay)
The antiglycation assay using methylgloxyl (MGO) was performed according to the method
developed by Peng et al. (2007) with slight modifications. Briefly, methylglyoxal (135 μL, 5.75 mM)
was incubated with BSA (135 μL, 10 mg/mL) dissolved in phosphate buffer (50 mM, pH 7.4,
containing sodium azide (0.02%), added to prevent bacterial growth) and test compounds (30 μL) at
different final concentrations (1.5–0.023 mM) in 100% DMSO. The reaction mixture was incubated at
37 °C for one week. Control solutions only contained methylglyoxal (135 μL, 5.75 mM) BSA (135 μL,
1 0 mg/mL) and DMSO (100%) only. The blank samples of similar composition were also prepared
simultaneously and kept at 4 °C for one week. The change in fluorescence intensity (excitation
335 nm, emission 385 nm; excitation 370, emission 440) due to formation of AGEs was monitored by
spectrofluorometry (Tecan® Infinite M200, Giessen, The Netherlands). Aminoguanidine (3–0.046 mM
final concentration) was used as reference compound. The AGEs inhibition was calculated as
% AGEs inhibition = [1 − (S − Sb)/(C − Cb)] × 100 (2)
where S and C were fluorescence of test samples (in DMSO) and control (test mixtures containing
only DMSO) incubated at 37 °C, and where Sb and Cb were fluorescence for samples incubated at 4 °C. […]

[2] = test system: formation of Advanced Glycation Endproducts (AGEs), BSA-glucose; assay: BSA-glucose antiglycation assay; assay type: biochemical, bovine; details: for BSA-Glucose % Inhibition: at 0.25 mM (table footnote a)
Experimental: The BSA (bovine serum albumin) -glucose and BSA-MGO (methyl glyoxal) antiglycation assays were carried out as reported before. The test protocol is attached as Supplementary Materials. […]
1. Antiglycation Assay (BSA-Glucose Assay)
The antiglycation assay was performed according to the method developed by Matsuura et al.
(2002) with minor modifications. The reaction mixture (300 μL) contained bovine serum albumin
(BSA) (10 mg/mL, 135 μL), D-glucose (500 mM, 135 μL) dissolved in phosphate buffer (50 mM, pH
7.4, containing sodium azide (0.02%, added to prevent bacterial growth) and test compounds (30 μL),
at different final concentrations (1.5–0.023 mM for isolated constituents or 100–1.17 μg/mL for
extracts) dissolved in 100 % DMSO. The mixtures were incubated at 60 °C for 48 h. After incubation,
the reaction mixture was allowed to cool down at room temperature. Then 100 μL reaction mixture
was transferred to a new plastic tube (1.5 mL) and the reaction was stopped by adding 10 μL of 100%
(w/v) trichloroacetic acid (TCA) and to precipitate proteins. The TCA-added mixture was kept at 4 °C
for 10 min, followed by centrifugation (14,000 rpm, 4 °C, 4 min). The supernatant containing unreacted
D-glucose, test sample and interfering substances was discarded, whereas the precipitate containing
AGEs-BSA was redissolved with 0.8 mL alkaline PBS (137 mM NaCl, 8.1 mM Na2HPO4, 2.68 mM KCl,
1.47 mM KH2PO4, pH 10). The change in fluorescence intensity (excitation 335 nm, emission 385 nm;
excitation 370, emission 440) due to formation of AGEs was monitored by spectrofluorometry
(Tecan™ Infinite M200, Giessen, The Netherlands). In order to eliminate interference by autofluorescenc e
of the test compounds, a parallel incubation of test substance with BSA at 60 °C without D-glucose
was performed for all samples. Quercetin (0.5–0.0312 mM final concentration) and aminoguanidine
(3–0.046 mM final concentration) were used as reference compounds.
2. The AGEs Inhibition was Calculated as
% inhibition = {1 − (FBSA + glucose + test substance − FBSA + test substance)/(FBSA
+ glucose − FBSA)} × 100 (1)
where F is the fluorescence intensity.
calculated using Sigma plot® 13.0. […]

Trypanosoma cruzi = assay: Antitrypanosomal activity, T. cruzi; assay type: cell-based; details: read-out: IC50 T. cruz.
Experimental: (§1) Fractions and isolated compounds were evaluated for antimicrobial activity in an integrated screening panel as reported before.

[3] = test system: Peritoneal Murine Macrophages (PMM); assay: Cytotoxicity on peritoneal murine macrophages; assay type: cell-based; details: Mus musculus, Macrophage
Experimental: as §1

Leishmania infantum = assay: Antileishmanial activity, L. infantum; assay type: cell-based
Experimental: as §1

Plasmodium falciparum K1 = assay: Antiplasmodial activity; assay type: cell-based; details: K1, read-out: IC50 Pf-K1
Experimental: as §1

[4] = test system: MRC-5: Human fetal lung fibroblasts; assay: Cytotoxicity on MRC-5 cells; assay type: cell-based; details: MRC5
Experimental: as §1

Trypanosoma brucei = assay: Antitrypanosomal activity, T. brucei; assay type: cell-based; details: read-out: IC50 T. bruc.
Experimental: as §1

[5] = test system: formation of Advanced Glycation Endproducts (AGEs), BSA-MGO (methyl glyoxal); assay: BSA-MGO antiglycation assay; assay type: biochemical, bovine; details: at 2 mM
Escherichia coli = assay: Antibacterial screening, E. coli; assay type: cell-based
Experimental: as §1

[6] = test system: Leishmania promastigote stage; set-up: method as in doi:10.1016/j.phytol.2014.04.009; details: cited from earlier work
Staphylococcus aureus = assay: Antibacterial screening, S. aureus; assay type: cell-based
Experimental: as §1

Microsporum canis = assay: Antifungal screening, M. canis; assay type: cell-based
Experimental: as §1

Aspergillus fumigatus = assay: Antifungal screening, A. fumigatus; assay type: cell-based
Experimental: as §1

Structure (SMILES): N=C(N)NN [Aminoguanidine, reference compound]
- IC50 [1]: 150 µM
- IC50 [2]: 1750 µM

Structure (SMILES): CC(=O)OC(CC=C(C)C)/C(C)=C/C(O)C/C(C)=C/COc1ccc2ccc(=O)oc2c1 (centres unmarked) [Compound 3, 8′-O-Acetyl-asacoumarin A]
- IC50 (Trypanosoma cruzi): 19.1 µM
- IC50 [3]: 32 µM
- IC50 (Leishmania infantum): 12.7 µM
- IC50 [1]: 1030 µM
- IC50 (Plasmodium falciparum K1): 7.4 µM
- IC50 [4]: 31.7 µM
- IC50 (Trypanosoma brucei): 32.4 µM
- BSA-Glucose IC50 [2]: did not reach the 50% inhibition level
- BSA-Glucose % Inhibition [2]: 44%

Structure (SMILES): CC(C)=CCC(O)/C(C)=C/C(O)C/C(C)=C/COc1ccc2ccc(=O)oc2c1 (centres unmarked) [Compound 4, Asacoumarin A]
- IC50 (Trypanosoma cruzi): 10.5 µM
- BSA-MGO % Inhibition [5]: 35%
- IC50 [3]: 32 µM
- IC50 (Leishmania infantum): 12.7 µM
- BSA-MGO IC50 [1]: the 50% inhibition level was not reached
- IC50 (Plasmodium falciparum K1): 1.3 µM
- IC50 [4]: 11.7 µM
- IC50 (Trypanosoma brucei): 32.6 µM
- IC50 [2]: 1830 µM

Structure (SMILES): C/C(=C\COc1ccc2ccc(=O)oc2c1)CC/C=C(\C)CC[C@@H](O)C(C)(C)O [Compound 5, 10′R-Karatavacinol]
- IC50 (Trypanosoma cruzi): 9.4 µM
- IC50 [3]: 32 µM
- IC50 (Leishmania infantum): 32.4 µM
- IC50 [1]: 1830 µM
- IC50 (Plasmodium falciparum K1): 16 µM
- IC50 [4]: 20.4 µM
- IC50 (Trypanosoma brucei): 32.4 µM
- BSA-Glucose IC50 [2]: did not reach the 50% inhibition level
- BSA-Glucose % Inhibition [2]: 32%

Structure (SMILES): CC(=O)O[C@H](CC/C(C)=C/CC/C(C)=C/COc1ccc2ccc(=O)oc2c1)C(C)(C)O [Compound 6, 10′R-Acetyl-karatavacinol]
- BSA-MGO % Inhibition [5]: 20%
- BSA-MGO IC50 [1]: the 50% inhibition level was not reached
- BSA-Glucose IC50 [2]: did not reach the 50% inhibition level
- BSA-Glucose % Inhibition [2]: 36%

Structure (SMILES): O=c1c(O)c(-c2ccc(O)c(O)c2)oc2cc(O)cc(O)c12 [Quercetin, reference compound]
- IC50 [1]: 350 µM
- IC50 [2]: 230 µM

Structure (SMILES): O=C(N[C@H](CO)[C@H](O)c1ccc([N+](=O)[O-])cc1)C(Cl)Cl [chloramphenicol]
- IC50 (Escherichia coli): 4.9 µM

Structure (SMILES): CC1=CC[C@@H]2C(C)(C)[C@@H](O)CC[C@@]2(C)[C@@H]1COc1ccc2ccc(=O)oc2c1 [conferol]
- IC value, antileishmanial activity [6]: 11.51 µg/mL

Structure (SMILES): CC[C@H]1OC(=O)[C@H](C)[C@@H](O[C@H]2C[C@@](C)(OC)[C@@H](O)[C@H](C)O2)[C@H](C)[C@@H](O[C@@H]2O[C@H](C)C[C@H](N(C)C)[C@H]2O)[C@](C)(O)C[C@@H](C)C(=O)[C@H](C)[C@@H](O)[C@]1(C)O [erythromycin]
- IC50 (Staphylococcus aureus): 11.2 µg/mL (≈ 15.3 µM)

Structure (SMILES): Cc1ccc(C(=O)Nc2ccc(S(=O)(=O)O)c3cc(S(=O)(=O)O)cc(S(=O)(=O)O)c23)cc1NC(=O)c1cccc(NC(=O)Nc2cccc(C(=O)Nc3cc(C(=O)Nc4ccc(S(=O)(=O)O)c5cc(S(=O)(=O)O)cc(S(=O)(=O)O)c45)ccc3C)c2)c1 [suramine, reference compound]
- IC50 (Trypanosoma brucei): 0.03 µM

Structure (SMILES): COc1cc(Cc2cnc(N)nc2N)cc(OC)c1OC [trimethoprim]
- IC50 (Escherichia coli): 0.25 µg/mL

Further lines, with some results ahead:

- IC50 (Trypanosoma cruzi): 8.6 µM
- IC50 (Leishmania infantum): 6.8 µM
- IC50 [1]: 1710 µM
- IC50 (Plasmodium falciparum K1): 22.4 µM
- IC50 (Trypanosoma brucei): 8.1 µM
- BSA-Glucose IC50 [2]: did not reach the 50% inhibition level
Structure (SMILES): CC1=CC[C@@H]2C(C)(C)[C@H](O)CC[C@@]2(C)[C@@H]1COc1ccc2ccc(=O)oc2c1 [Compound 1, Feselol]
- IC50 [3]: 8 µM
- IC50 [4]: 8 µM
- BSA-Glucose % Inhibition [2]: 47%

- BSA-MGO IC50 [1]: the 50% inhibition level was not reached
- IC50 [2]: 410 µM
Structure (SMILES): CC1=CC(=O)[C@@H]2C(C)(C)[C@H](O)CC[C@@]2(C)[C@@H]1COc1ccc2ccc(=O)oc2c1 [Compound 2, Ligupersin A]
- BSA-MGO % Inhibition [5]: 40%

- IC50 (Trypanosoma cruzi): 3.3 µM
Structure (SMILES): O=C(Cn1ccnc1[N+](=O)[O-])NCc1ccccc1 [benznidazole, reference compound]

- IC50 (Plasmodium falciparum K1): 0.16 µM
Structure (SMILES): CCN(CC)CCCC(C)Nc1ccnc2cc(Cl)ccc12 (centres unmarked) [chloroquine, reference compound]

- IC50 (Microsporum canis): 0.11 µg/mL (≈ 0.377 µM)
- IC50 (Aspergillus fumigatus): 0.8 µM
Structure (SMILES): CN(C/C=C/C#CC(C)(C)C)Cc1cccc2ccccc12 [terbinafine]
